Experimental data from patent US20100311714A1, “1H-IMIDAZO[4,5-c]QUINOLINONE COMPOUNDS” (priority 2009, published 2010).
Values after ≈ are worked out from the molar mass of the structure shown.

Columns and labels:
[1] = High-throughput equilibrium solubility at pH 6.8; assay type: physicochemical; conditions: pH 6.8, aqueous buffer, thermodynamic from solid; read-out: HT-Eq Sol/pH 6.8
Summary of the method: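 Following the procedure of Zhou et al. (2007), compound solubility was determined at pH 6.8.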

[2] = tested on: PKB Ser473 phosphorylation in Rat1-myr-HA-p110 alpha cells; test: Reverse protein array, PKB Ser473 phosphorylation in Rat1-myr-HA-p110 alpha cells; assay type: cell-based; conditions: Rattus norvegicus, 0.5 h, 30 minutes compound incubation, read-out: p-PKB/IC50_alpha

SMILES | solubility thermodynamic [1] | IC50 [2]
CNc1ncc(-c2ccc3ncc4c(c3c2)n(-c2ccc(N3CC[C@H](O)C3)nc2C)c(=O)n4C)cc1C(F)(F)F [Example 32.5, 1-[6-((S)-3-Hydroxy-pyrrolidin-1-yl)-2-methyl-pyridin-3-yl]-3-methyl-8-(6-methylamino-5-trifluoromethyl-pyridin-3-yl)-1,3-dihydro-imidazo[4,5-c]quinolin-2-one] | 49 µg/mL (≈ 89.2 µM) | 10 nM
CCOc1cc(-c2ccc3ncc4c(c3c2)n(-c2ccc(OCCOC)nc2C)c(=O)n4C)cnc1COC [Example 22.1, 8-(5-Ethoxy-6-methoxymethyl-pyridin-3-yl)-1-[6-(2-methoxy-ethoxy)-2-methyl-pyridin-3-yl]-3-methyl-1,3-dihydro-imidazo[4,5-c]quinolin-2-one] | 7 µg/mL (≈ 13.2 µM) | 17.7 nM
COc1ncc(-c2ccc3ncc4c(c3c2)n(-c2ccc(N3CC[C@H](O)C3)nc2C)c(=O)n4C)c(OC)n1 [Example 32.3, 8-(2,4-Dimethoxy-pyrimidin-5-yl)-1-[6-((S)-3-hydroxy-pyrrolidin-1-yl)-2-methyl-pyridin-3-yl]-3-methyl-1,3-dihydro-imidazo[4,5-c]quinolin-2-one] | 30 µg/mL (≈ 58.4 µM) | 45 nM
CCOc1cc(-c2ccc3ncc4c(c3c2)n(-c2ccc(N3CCCC3)nc2C)c(=O)n4C)cnc1COC [Example 25.2, 8-(5-Ethoxy-6-methoxymethyl-pyridin-3-yl)-3-methyl-1-(2-methyl-6-pyrrolidin-1-yl-pyridin-3-yl)-1,3-dihydro-imidazo[4,5-c]quinolin-2-one] | 187 µg/mL (≈ 356 µM) | 48 nM
Cc1ccncc1-n1c(=O)n(C)c2cnc3ccc(-c4ccc(CO)nc4)cc3c21 [Example 4.1, 8-(6-Hydroxymethyl-pyridin-3-yl)-3-methyl-1-(4-methyl-pyridin-3-yl)-1,3-dihydro-imidazo[4,5-c]quinolin-2-one] | 75 µg/mL (≈ 189 µM) | 542 nM
Cc1nc(N2CC[C@H](O)C2)ccc1-n1c(=O)n(C)c2cnc3ccc(-c4cncc(OC(C)C)c4)cc3c21 [Example 32.8, 1-[6-((S)-3-Hydroxy-pyrrolidin-1-yl)-2-methyl-pyridin-3-yl]-8-(5-isopropoxy-pyridin-3-yl)-3-methyl-1,3-dihydro-imidazo[4,5-c]quinolin-2-one] | 120 µg/mL (≈ 235 µM) | 35.8 nM
CNc1ncc(-c2ccc3ncc4c(c3c2)n(-c2ccc(N3CC[C@H](O)C3)nc2C)c(=O)n4C)cn1 [Example 32.1, 1-[6-((S)-3-Hydroxy-pyrrolidin-1-yl)-2-methyl-pyridin-3-yl]-3-methyl-8-(2-methylamino-pyrimidin-5-yl)-1,3-dihydro-imidazo[4,5-c]quinolin-2-one] | 64 µg/mL (≈ 133 µM) | < 4.57 nM
COc1ncccc1-n1c(=O)n(C)c2cnc3ccc(-c4cnc5[nH]ccc5c4)cc3c21 [Example 1.2, 1-(2-Methoxy-pyridin-3-yl)-3-methyl-8-(1H-pyrrolo[2,3-b]pyridin-5-yl)-1,3-dihydro-imidazo[4,5-c]quinolin-2-one] | 3 µg/mL (≈ 7.1 µM) | 5.7 nM
Cc1ncccc1-n1c(=O)n(C)c2cnc3ccc(-c4cnc(N(C)C)nc4)cc3c21 [Example 2.15, 8-(2-Dimethylamino-pyrimidin-5-yl)-3-methyl-1-(2-methyl-pyridin-3-yl)-1,3-dihydro-imidazo[4,5-c]quinolin-2-one] | 11 µg/mL (≈ 26.7 µM) | 72.4 nM
CCOc1ccc(-c2ccc3ncc4c(c3c2)n(-c2cnccc2C)c(=O)n4C)cn1 [Example 4.2, 8-(6-Ethoxy-pyridin-3-yl)-3-methyl-1-(4-methyl-pyridin-3-yl)-1,3-dihydro-imidazo[4,5-c]quinolin-2-one] | 50 µg/mL (≈ 122 µM) | 47.3 nM
CNc1ncc(-c2ccc3ncc4c(c3c2)n(-c2ccc(N3CC(O)C3)nc2C)c(=O)n4C)cc1C(F)(F)F [Example 29.4, 1-[6-(3-Hydroxy-azetidin-1-yl)-2-methyl-pyridin-3-yl]-3-methyl-8-(6-methylamino-5-trifluoromethyl-pyridin-3-yl)-1,3-dihydro-imidazo[4,5-c]quinolin-2-one] | 44 µg/mL (≈ 82.2 µM) | 8 nM
CCOc1ncc(-c2ccc3ncc4c(c3c2)n(-c2cccnc2C)c(=O)n4C)cn1 [Example 2.5, 8-(2-Ethoxy-pyrimidin-5-yl)-3-methyl-1-(2-methyl-pyridin-3-yl)-1,3-dihydro-imidazo[4,5-c]quinolin-2-one] | 48 µg/mL (≈ 116 µM) | 49 nM
CCNc1cc(-c2ccc3ncc4c(c3c2)n(-c2ccc(N3CCC3)nc2C)c(=O)n4C)cnc1CO [Example 23.8, 1-(6-Azetidin-1-yl-2-methyl-pyridin-3-yl)-8-(5-ethylamino-6-hydroxymethyl-pyridin-3-yl)-3-methyl-1,3-dihydro-imidazo[4,5-c]quinolin-2-one] | 57 µg/mL (≈ 115 µM) | 7.3 nM
CNc1ncc(-c2ccc3ncc4c(c3c2)n(-c2ccc(N(C)CCO)nc2C)c(=O)n4C)cn1 [Example 26.2, 1-{6-[(2-Hydroxy-ethyl)-methyl-amino]-2-methyl-pyridin-3-yl}-3-methyl-8-(2-methylamino-pyrimidin-5-yl)-1,3-dihydro-imidazo[4,5-c]quinolin-2-one] | 23 µg/mL (≈ 48.9 µM) | 5.1 nM
Cc1cccnc1-n1c(=O)n(C)c2cnc3ccc(-c4ccc(CO)nc4)cc3c21 [Example 3.9, 8-(6-Hydroxymethyl-pyridin-3-yl)-3-methyl-1-(3-methyl-pyridin-2-yl)-1,3-dihydro-imidazo[4,5-c]quinolin-2-one] | > 397 µg/mL | 301 nM
CNc1ncc(-c2ccc3ncc4c(c3c2)n(-c2ccc(N3CC(F)(F)C3)nc2C)c(=O)n4C)cn1 [Example 24.1, 1-[6-(3,3-Difluoro-azetidin-1-yl)-2-methyl-pyridin-3-yl]-3-methyl-8-(2-methylamino-pyrimidin-5-yl)-1,3-dihydro-imidazo[4,5-c]quinolin-2-one] | 59 µg/mL (≈ 121 µM) | 15.3 nM
CCNc1cc(-c2ccc3ncc4c(c3c2)n(-c2ccc(N3CC(O)C3)nc2C)c(=O)n4C)cnc1CO [Example 29.2, 8-(5-Ethylamino-6-hydroxymethyl-pyridin-3-yl)-1-[6-(3-hydroxy-azetidin-1-yl)-2-methyl-pyridin-3-yl]-3-methyl-1,3-dihydro-imidazo[4,5-c]quinolin-2-one] | 57 µg/mL (≈ 111 µM) | 14 nM
CCOc1cc(-c2ccc3ncc4c(c3c2)n(-c2ccc(F)nc2C)c(=O)n4C)cnc1COC [Example 7.5, 8-(5-Ethoxy-6-methoxymethyl-pyridin-3-yl)-1-(6-fluoro-2-methyl-pyridin-3-yl)-3-methyl-1,3-dihydro-imidazo[4,5-c]quinolin-2-one] | 94 µg/mL (≈ 199 µM) | 31.5 nM
CCOc1cc(-c2ccc3ncc4c(c3c2)n(-c2cccnc2C)c(=O)n4C)cnc1COC [Example 2.28, 8-(5-Ethoxy-6-methoxymethyl-pyridin-3-yl)-3-methyl-1-(2-methyl-pyridin-3-yl)-1,3-dihydro-imidazo[4,5-c]quinolin-2-one] | 51 µg/mL (≈ 112 µM) | 23.7 nM
CCOc1ccc(-c2ccc3ncc4c(c3c2)n(-c2ncccc2C)c(=O)n4C)cn1 [Example 3.6, 8-(6-Ethoxy-pyridin-3-yl)-3-methyl-1-(3-methyl-pyridin-2-yl)-1,3-dihydro-imidazo[4,5-c]quinolin-2-one] | 20 µg/mL (≈ 48.6 µM) | 150 nM
Cc1ncccc1-n1c(=O)n(C)c2cnc3ccc(-c4ccc(CO)nc4)cc3c21 [Example 2.6, 8-(6-Hydroxymethyl-pyridin-3-yl)-3-methyl-1-(2-methyl-pyridin-3-yl)-1,3-dihydro-imidazo[4,5-c]quinolin-2-one] | 125 µg/mL (≈ 315 µM) | 38.6 nM
CCNc1cc(-c2ccc3ncc4c(c3c2)n(-c2cccnc2C)c(=O)n4C)cnc1CO [Example 2.31, 8-(5-Ethylamino-6-hydroxymethyl-pyridin-3-yl)-3-methyl-1-(2-methyl-pyridin-3-yl)-1,3-dihydro-imidazo[4,5-c]quinolin-2-one] | 27 µg/mL (≈ 61.3 µM) | < 4.57 nM
CNc1ccc(-c2ccc3ncc4c(c3c2)n(-c2ccc(N3CCC3)nc2C)c(=O)n4C)cn1 [Example 23.4, 1-(6-Azetidin-1-yl-2-methyl-pyridin-3-yl)-3-methyl-8-(6-methylamino-pyridin-3-yl)-1,3-dihydro-imidazo[4,5-c]quinolin-2-one] | 9 µg/mL (≈ 19.9 µM) | 5.7 nM
CNc1ncc(-c2ccc3ncc4c(c3c2)n(-c2ccc(N3CC(O)C3)nc2C)c(=O)n4C)cc1F [Example 29.3, 8-(5-Fluoro-6-methylamino-pyridin-3-yl)-1-[6-(3-hydroxy-azetidin-1-yl)-2-methyl-pyridin-3-yl]-3-methyl-1,3-dihydro-imidazo[4,5-c]quinolin-2-one] | 56 µg/mL (≈ 115 µM) | 21.9 nM
Cc1nc(N2CCC2)ccc1-n1c(=O)n(C)c2cnc3ccc(-c4cncc(OC(C)C)c4)cc3c21 [Example 23.9, 1-(6-Azetidin-1-yl-2-methyl-pyridin-3-yl)-8-(5-isopropoxy-pyridin-3-yl)-3-methyl-1,3-dihydro-imidazo[4,5-c]quinolin-2-one] | 35 µg/mL (≈ 72.8 µM) | 26.2 nM
CN(C)c1ccc(-c2ccc3ncc4c(c3c2)n(-c2cccnc2)c(=O)n4C)cn1 [Example 5.3, 8-(6-Dimethylamino-pyridin-3-yl)-3-methyl-1-pyridin-3-yl-1,3-dihydro-imidazo[4,5-c]quinolin-2-one] | 4 µg/mL (≈ 10.1 µM) | 92.2 nM
COC1CCN(c2ccc(-n3c(=O)n(C)c4cnc5ccc(-c6cncc(C(C)(C)O)c6)cc5c43)c(C)n2)C1 (stereo not drawn) [Example 28.1, 8-[5-(1-Hydroxy-1-methyl-ethyl)-pyridin-3-yl]-1-[6-(3-methoxy-pyrrolidin-1-yl)-2-methyl-pyridin-3-yl]-3-methyl-1,3-dihydro-imidazo[4,5-c]quinolin-2-one] | 427 µg/mL (≈ 814 µM) | 22.7 nM
